# Test results reported in PubChem BioAssay AID2060894 (Molecular Pharmacology Branch, DTP, NCI, 2025).
# System: K12877-001-R-J1-PDC complex spheroid viability
# Experiment: Anticancer human tumor K12877-001-R-J1-PDC patient-derived lung adenocarcinoma cell line growth inhibition [RAS]
# Conditions: for IC50: curve of first compound; for viability, T/C: stronger effect = lower value
# Description: RAS pathway inhibitors in Combinations in Complex Spheroids
# A high-throughput screen of multi-cell type tumor spheroids was designed to identify active combinations of RAS pathway inhibitors and targeted small molecules. Complex spheroids include a stromal component modeled by human endothelial cells (HUVEC) and fibroblasts modeled by human mesenchymal stem cells (MSCs). The concentration ranges selected for each drug and investigational agent were based upon clinically achievable concentrations if the clinical Cmax of the agent was known.
# Compounds. The drugs and investigational agents: abemaciclib (NSC768073), cobimetinib (NSC768068), divarasib (GDC6063, NSC841802), docetaxel (NSC628503), GDC-1971 (RLY-1971, NSC841576), gemcitabine (NSC613327), inavolisib (NSC800729), ipatasertib (NSC767898), KB-0742 (NSC834161), MRTX-1133 (NSC836407), osimertinib (NSC779217), RMC-4630 (NSC839698), RMC-6236 (NSC851965), RMC-6291 (NSC852671), Ro-3306 (NSC812927), sapanisertib (NSC764658), SN-38 (NSC673596), staurosporine (NSC755774), SY5609 (NSC837396), and tovorafenib (DAY101, NSC766906), were obtained from the National Cancer Institute (NCI) Developmental Therapeutics Program Chemical Repository. The FDA-approved anticancer drug set is available from the NCI Developmental Therapeutics Program. […] The stock solutions were prepared in dimethyl sulfoxide (DMSO, Sigma-Aldrich, St. Louis, MO, cat. D2650) at 800-fold the tested concentration and stored at -70 degrees C prior to their use. All drugs and investigational agents were tested over a range starting from a high concentration at or near the clinical Cmax and decreasing in half-log increments. If the clinical Cmax for an agent had not been determined, the highest concentration tested was 10 microM.
# Cell Culture. All cells were maintained in an incubator at 37 degrees C and 5% CO2 with 95% humidity. The PDC lines were cultured according to standard operating procedures established by the NCI PDMR. All PDCs were thawed and cultured in Matrigel-coated flasks prepared with a working solution of 1X Ham's F-12 nutrient mix, without supplementation (Invitrogen, Waltham, MA, cat. 11765054), 100 U/mL penicillin-streptomycin (Invitrogen, cat. 15140122), and 2.5% Matrigel (Corning Inc., Corning, NY, cat. 354248) for the first three passages. The 362531-283-R-J2-PDC and 782815-120-R-J1-PDC lines were cultured in 6C/Colon 1B media, which includes advanced DMEM/F-12 (Thermo Fisher Scientific, cat. 12634028), 10 mM HEPES (Thermo Fisher Scientific, cat. 15630080), 1X GlutaMAX supplement (Thermo Fisher Scientific, cat. 35050061), 0.1 mg/mL primocin (InvivoGen, San Diego, CA, cat. ant-pm-2), 10% defined fetal bovine serum, heat inactivated (HyClone Laboratories Inc., Logan, UT, cat. SH30070.03HI), 50% L-WRN conditioned media (ATCC, cat. CRL-3276), 1.25 mM N-Acetyl-L-cysteine (Sigma-Aldrich, cat. A9165), 10 mM nicotinamide (Sigma-Aldrich, cat. N0636), 1X B-27 supplement (Thermo Fisher Scientific, cat. 17504044), 1X N-2 supplement (Thermo Fisher Scientific, cat. 17502048), 50 ng/mL human EGF (Thermo Fisher Scientific, cat. PHG0311), and 10 microM Y-27632 dihydrochloride (Tocris Bioscience, cat. 1254). The K12877-001-R-J1-PDC line was cultured in 6I media, which includes all 6C/Colon 1B media plus 10 ng/mL human FGF-10 (PeproTech, cat. 100-26), 1 ng/mL human FGF-2 (PeproTech, cat. 100-18B), 1 µM prostaglandin E2 (Tocris Bioscience, cat. 2296), […] hydrocortisone (Sigma-Aldrich, cat. H4001), and […] bovine insulin (Sigma-Aldrich, cat. I6634). The K86415-001-R-J1-PDC line was cultured in 6D media, which includes all 6C/Colon 1B media components minus the L-WRN conditioned media. The 485176-168-R4-J1-PDC was cultured in PANC media, which includes all 6C/Colon 1B media plus 100 ng/mL human FGF-10 (PeproTech, cat. 100-26), 500 nM SB-431542 (Selleckchem, cat. S1067), and 10 nM gastrin (Tocris Bioscience, cat. 3006). […]
# [1] = second compound 0.00316 µM, first compound 0.0316 µM
# [2] = second compound 0.00316 µM, first compound 0.1 µM
# [3] = second compound 0.00316 µM, first compound 0.316 µM
# [4] = second compound 0.00316 µM, first compound 1 µM
# [5] = second compound 0.01 µM, first compound 0.0316 µM
# [6] = second compound 0.01 µM, first compound 0.1 µM
# [7] = second compound 0.01 µM, first compound 0.316 µM
# [8] = second compound 0.01 µM, first compound 1 µM
# [9] = second compound 0.0316 µM, first compound 0.0316 µM
# [10] = second compound 0.0316 µM, first compound 0.1 µM
# [11] = second compound 0.0316 µM, first compound 0.316 µM
# [12] = second compound 0.0316 µM, first compound 1 µM
# [13] = second compound 0.1 µM, first compound 0.0316 µM
# [14] = second compound 0.1 µM, first compound 0.1 µM
# [15] = second compound 0.1 µM, first compound 0.316 µM
# [16] = second compound 0.1 µM, first compound 1 µM
# [17] = second compound 0.316 µM, first compound 0.0316 µM
# [18] = second compound 0.316 µM, first compound 0.1 µM
# [19] = second compound 0.316 µM, first compound 0.316 µM
# [20] = second compound 0.316 µM, first compound 1 µM
# [21] = second compound 1 µM, first compound 0.0316 µM
# [22] = second compound 1 µM, first compound 0.1 µM
# [23] = second compound 1 µM, first compound 0.316 µM
# [24] = second compound 1 µM, first compound 1 µM
# 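Further: spheroids exposed to agents for one week before readout.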
compound,measurement,setting,value
Cc1nc(N2CCC3(CC2)COC(C)C3N)c(CO)nc1Sc1ccnc(N)c1Cl (centres undefined) + C=CC(=O)N1CCN(c2nc(OCC3CCCN3C)nc3c(F)c(-c4nc(N)cc(C)c4C(F)(F)F)c(Cl)cc23)C(C)C1,IC50,second compound 0.00316 µM,> 10 µM
same,IC50,second compound 0.01 µM,> 10 µM
same,IC50,second compound 0.0316 µM,> 10 µM
same,IC50,second compound 0.1 µM,> 10 µM
same,IC50,second compound 0.316 µM,> 10 µM
same,IC50,second compound 1 µM,> 10 µM
same,"viability, T/C",[1],111%
same,"viability, T/C",[2],98.5%
same,"viability, T/C",[3],90.6%
same,"viability, T/C",[4],86.9%
same,"viability, T/C","second compound 0.00316 µM, first compound 3.16 µM",92.4%
same,"viability, T/C","second compound 0.00316 µM, first compound 10 µM",93%
same,"viability, T/C",[5],94.8%
same,"viability, T/C",[6],79.3%
same,"viability, T/C",[7],84.4%
same,"viability, T/C",[8],93.3%
same,"viability, T/C","second compound 0.01 µM, first compound 3.16 µM",83.9%
same,"viability, T/C","second compound 0.01 µM, first compound 10 µM",68.5%
same,"viability, T/C",[9],91.2%
same,"viability, T/C",[10],92.9%
same,"viability, T/C",[11],88.3%
same,"viability, T/C",[12],70%
same,"viability, T/C","second compound 0.0316 µM, first compound 3.16 µM",80.7%
same,"viability, T/C","second compound 0.0316 µM, first compound 10 µM",65.8%
same,"viability, T/C",[13],99.7%
same,"viability, T/C",[14],87.6%
same,"viability, T/C",[15],85.7%
same,"viability, T/C",[16],86.9%
same,"viability, T/C","second compound 0.1 µM, first compound 3.16 µM",79.2%
same,"viability, T/C","second compound 0.1 µM, first compound 10 µM",60.2%
same,"viability, T/C",[17],84.9%
same,"viability, T/C",[18],75.9%
same,"viability, T/C",[19],80.5%
same,"viability, T/C",[20],93.9%
same,"viability, T/C","second compound 0.316 µM, first compound 3.16 µM",79.4%
same,"viability, T/C","second compound 0.316 µM, first compound 10 µM",61.4%
same,"viability, T/C",[21],87.3%
same,"viability, T/C",[22],90.8%
same,"viability, T/C",[23],98.8%
same,"viability, T/C",[24],92.6%
same,"viability, T/C","second compound 1 µM, first compound 3.16 µM",78.8%
same,"viability, T/C","second compound 1 µM, first compound 10 µM",62.2%
C=CC(=O)Nc1cc(Nc2nccc(-c3cn(C)c4ccccc34)n2)c(OC)cc1N(C)CCN(C)C + C=CC(=O)N1CCN(c2nc(OCC3CCCN3C)nc3c(F)c(-c4nc(N)cc(C)c4C(F)(F)F)c(Cl)cc23)C(C)C1,IC50,second compound 0.00316 µM,> 1 µM
same,IC50,second compound 0.01 µM,> 1 µM
same,IC50,second compound 0.0316 µM,> 1 µM
same,IC50,second compound 0.1 µM,> 1 µM
same,IC50,second compound 0.316 µM,> 1 µM
same,IC50,second compound 1 µM,> 1 µM
same,"viability, T/C","second compound 0.00316 µM, first compound 0.00316 µM",106%
same,"viability, T/C","second compound 0.00316 µM, first compound 0.01 µM",98.8%
same,"viability, T/C",[1],98.7%
same,"viability, T/C",[2],100%
same,"viability, T/C",[3],101%
same,"viability, T/C",[4],83.8%
same,"viability, T/C","second compound 0.01 µM, first compound 0.00316 µM",104%
same,"viability, T/C","second compound 0.01 µM, first compound 0.01 µM",95%
same,"viability, T/C",[5],103%
same,"viability, T/C",[6],96.2%
same,"viability, T/C",[7],92.7%
same,"viability, T/C",[8],82.6%
same,"viability, T/C","second compound 0.0316 µM, first compound 0.00316 µM",95.8%
same,"viability, T/C","second compound 0.0316 µM, first compound 0.01 µM",93.1%
same,"viability, T/C",[9],88.3%
same,"viability, T/C",[10],90.7%
same,"viability, T/C",[11],79.6%
same,"viability, T/C",[12],80.1%
same,"viability, T/C","second compound 0.1 µM, first compound 0.00316 µM",93.6%
same,"viability, T/C","second compound 0.1 µM, first compound 0.01 µM",88.1%
same,"viability, T/C",[13],88.9%
same,"viability, T/C",[14],88.1%
same,"viability, T/C",[15],76.2%
same,"viability, T/C",[16],70.8%
same,"viability, T/C","second compound 0.316 µM, first compound 0.00316 µM",90.8%
same,"viability, T/C","second compound 0.316 µM, first compound 0.01 µM",94.1%
same,"viability, T/C",[17],82.3%
same,"viability, T/C",[18],89.1%
same,"viability, T/C",[19],79.8%
same,"viability, T/C",[20],72.6%
same,"viability, T/C","second compound 1 µM, first compound 0.00316 µM",86.5%
same,"viability, T/C","second compound 1 µM, first compound 0.01 µM",91.8%
same,"viability, T/C",[21],83.6%
same,"viability, T/C",[22],76.9%
same,"viability, T/C",[23],76.6%
same,"viability, T/C",[24],73.5%
